From patent US8710061B2, “Compounds for the reduction of β-amyloid production” (Bristol-Myers Squibb Company, priority 2011, dated 2014) come the findings set out here.

The term IC50 denotes the concentration that inhibits the measured activity by half.

The first experiment relates to Aβ42 production in H4 APP751 SWE clone 8.20 cells. As to the kind of experiment: Cellular assay for inhibition of Aβ1-42 production. The class given is cell-based. Particulars: 19 h incubation, read-out: Activity Rating (Aβ42 cellular IC50), class symbol. On the procedure:
Cellular Assays for Inhibition of Aβ1-40 and Aβ1-42 Production
H4 cells stably transfected with APP751 containing the Swedish mutation (H4 APP751 SWE clone 8.20, developed at BMS) were maintained in log phase through twice weekly passage at a 1:20 split. […] Following incubation for 19 h in 5% CO2 at 37° C., plates were briefly centrifuged (1000 rpm, 5 min). A 10 μl aliquot from each well was transferred to a second assay plate (Costar 3709) for Aβ40 measurements. Antibody cocktails were freshly prepared by dilution into 40 mM Tris-HCl (pH 7.4) with 0.2% BSA and added to assay plates. For Aβ42 measurements, antibodies specific for the Aβ42 neoepitope (565, developed at BMS; conjugated to the Wallac reagent (Perkin Elmer)) and the N-terminal sequence of Aβ peptide (26D6, developed at SIBIA; conjugated to […] (Perkin Elmer)) were mixed and 20 μl of the mixture was added to each well of the incubated cell plate yielding a final concentration of 0.8 ng/well 565 and 75 ng/well 26D6. For the Aβ40 measurements, antibodies specific for the Aβ40 neoepitope (TSD, developed at BMS; conjugated to the Wallac reagent (Perkin Elmer)) and 26D6 as described above were mixed and 20 μl of the mixture was added to the 10 μl aliquots which had been removed previously from the cell plate yielding a final concentration of 1.6 ng/well TSD and 17.5 ng/well 26D6. Assay plates containing antibodies were sealed with aluminum foil and incubated overnight at 4° C. Signal was determined using a Viewlux counter (Perkin Elmer) and IC50 values determined using curve fitting in CurveMaster (Excel Fit based).
Regarding `CNc1nc(Nc2ccc(C#N)c(OC)c2)nc2c1CCC2c1cccc(OC)c1` (racemic) [Example 7, 2-methoxy-4-(7-(3-methoxyphenyl)-4-(methylamino)-6,7-dihydro-5H-cyclopenta[d]pyrimidin-2-ylamino)benzonitrile], the IC50 is 10 to 100 nM.
Consider `CNc1nc(Nc2ccc(C#N)c(OC)c2)nc2c1CC[C@H]2c1ccccc1Cl` (single isomer, unassigned) [Example 3A], for which the IC50 was in the range of 1.5 to 9.9 nM.
On the same count and under the same terms, as for `CNc1nc(Nc2ccc(C#N)c(OC)c2)nc2c1CC[C@H]2c1ccccc1F` (single isomer, unassigned) [Example 4A], the figure is 10 to 100 nM; as for `CNc1nc(Nc2ccc(C#N)c(OC)c2)nc2c1CC[C@H]2c1ccc(Cl)cc1F` (single isomer, unassigned) [Example 6A], 10 to 100 nM; as for `CNc1nc(Nc2ccc(C#N)c(OC)c2)nc2c1CC[C@@H]2c1ccccc1OC` [Example 1B, (R)-2-methoxy-4-(7-(2-methoxyphenyl)-4-(methylamino)-6,7-dihydro-5H-cyclopenta[d]pyrimidin-2-ylamino)benzonitrile], 10 to 100 nM.
On the same count and under the same terms, as for `CNc1nc(Nc2ccc(C#N)c(OC)c2)nc2c1CC[C@]2(C)c1ccc(F)cc1` [Example 2B, (R)-4-(7-(4-fluorophenyl)-7-methyl-4-(methylamino)-6,7-dihydro-5H-cyclopenta[d]pyrimidin-2-ylamino)-2-methoxybenzonitrile], the figure is 100 to 1000 nM.
As for `CNc1nc(Nc2ccc(C#N)c(OC)c2)nc2c1CCC2c1ccc(C(F)(F)F)cc1F` (centres unmarked) [Example 8, 4-(7-(2-fluoro-4-(trifluoromethyl)phenyl)-4-(methylamino)-6,7-dihydro-5H-cyclopenta[d]pyrimidin-2-ylamino)-2-methoxybenzonitrile], the half-maximal inhibitory concentration (IC50) fell in the range of 10 to 100 nM.

Still in this experiment, the particulars now being: 19 h incubation, read-out: Activity Rating (Aβ42 cellular IC50), given as number.
For `CNc1nc(Nc2ccc(C#N)c(OC)c2)nc2c1CC[C@H]2c1ccccc1OC` (single isomer, unassigned) [Example 1A], the IC50 was 13 nM.
The same measure, in the same setting: as for `CNc1nc(Nc2ccc(C#N)c(OC)c2)nc2c1CC[C@H]2c1c(F)cc(F)cc1F` (single isomer, unassigned) [Example 5A], the figure is 11 nM; as for `CNc1nc(Nc2ccc(C#N)c(OC)c2)nc2c1CC[C@@]2(C)c1ccc(F)cc1` [Example 2A, (S)-4-(7-(4-fluorophenyl)-7-methyl-4-(methylamino)-6,7-dihydro-5H-cyclopenta[d]pyrimidin-2-ylamino)-2-methoxybenzonitrile], 200 nM.
For the compound `CNc1nc(Nc2ccc(C#N)c(OC)c2)nc2c1CCC2c1ccc(OC(F)(F)F)cc1F` (centres unmarked) [Example 9, 4-(7-(2-fluoro-4-(trifluoromethoxy)phenyl)-4-(methylamino)-6,7-dihydro-5H-cyclopenta[d]pyrimidin-2-ylamino)-2-methoxybenzonitrile], the IC50 is 12 nM.
